Consider one compound from patent US20240368566A1, “PYK2-DERIVED PEPTIDES FOR INHIBITING INVADOPODIA-MEDIATED CANCER METASTASIS” (BAR-ILAN UNIVERSITY, priority 2023, published 2024).

The target in one test is T1, cortactin SH3 domain (Mus musculus, UniProt Q60598).
T1 construct: nucleotides1468-1641); 6xHis (N, cleaved yes); made in house; host or cells: E. coli BL21 (DE3)
As to the kind of experiment: NMR affinity determination, binding of peptides to purified cortactin-SH3. The conditions noted are these: binding to cortactin SH3 in vitro. As for the experimental part: The DNA sequence encoding the SH3 domain of the mouse cortactin SH3 domain (GenBank ID U03184; nucleotides1468-1641) was sub-cloned into a pET-28a plasmid (Novagen, Merck) in frame with the cleavable N-terminal 6×His tag. Isotopically labeled cortactin-SH3 for heteronuclear NMR experiments was expressed in transformed E. coli BL21 cells (DE3) grown in the presence of kanamycin (50 mg/1) and chloramphenicol (34 mg/1) at 37° C. in M9 minimal medium. For ^15N (^13C) labeling the medium contained 1 g/L of ^15NH4Cl (4 g/L ^13C6-glucose), and 0.25 g/l of appropriately labeled Celtone Base Powder (Cambridge Isotope Laboratories, Andover, MA) was added. For triple-labeled ^2H,^13C,^15N—SH3, expression began in 100 ml of the above medium grown to an OD600 of 0.4-0.5 and gently centrifuged. Pellets were then resuspended in 500 ml filter-sterilized D20-based ^15N-M9 supplemented with ^2H7-^13C6-glucose (2 g/1) and DCN-Isogro (0.25 g/1) to reach a final OD600 of −0.1. In both cases cells were then grown at 37° C. and induced with 0.5 mM isopropyl β-D-1-thiogalactopyranoside (IPTG) upon reaching OD600-0.8, followed by overnight growth at 27° C. To purify the SH3 domain, cells were harvested by centrifugation, subjected to a single freeze-thaw cycle, and resuspended in lysis buffer (50 mM NaPi pH 8.0, 300 mM NaCl, 1 mM dithiothreitol (DTT), 100 ml per liter of culture) supplemented with 1 tablet EDTA-free protease inhibitor cocktail (Merck) and benzamidine (5 mM). Cells were lysed by French press, followed by addition of benzamidine (final concentration 10 mM) and phenylmethylsulfonyl fluoride (PMSF, 1 mM), and the lysate was clarified by centrifugation. The supernatant was loaded on a HisTrap HP column (GE Healthcare, Chicago, IL, USA) equilibrated with lysis buffer and the protein eluted through a gradient (Buffer B: 50 mM NaPi pH 8.0, 100 mM NaCl, 300 mM imidazole, 1 mM DTT). To the fraction eluting at ˜40% B purified tobacco etch virus (TEV) protease (1:30 mol:mol) was added, and the mixture dialyzed overnight at 4° C. against dialysis buffer (50 mM NaPi at pH 8.0, 100 mM NaCl, 1 mM DTT). The dialysate was brought to a final concentration of ˜5 mM imidazole, filtered, and loaded onto a HisTrap column. The collected flowthrough was dialyzed against 20 mM Tris (pH 7.5), 1 mM DTT for 3 h to reach a final concentration of 10 mM NaCl. […]
Purified SH3 was dialyzed against NMR sample buffer (30 mM NaPi, pH ˜6.5) and concentrated to the desired concentration in an Amicon concentration tube (3 kDa MWCO) (Merck). […] For quantitative titrations, purchased peptides were dissolved in 100-300 μl NMR sample buffer, and samples at varying (SH3:PRR2 1:0-1:6, SH3 concentration constant at 0.1 mM) ratios were prepared. Fittings were performed with 5-6 measured points. […]

Another test has as its system cortactin tyrosine Y421. As to the kind of experiment: Immunofluorescence analysis of cortactin tyrosine phosphorylation at invadopodium precursors. The format is cell-based, human. Particulars: EGF stimulation 3 min; all concentrations (0.1, 1, 5 μM). As for the experimental part: Twenty-four hours before each experiment, cells were plated on fibronectin/gelatin unlabeled matrix in the presence of a Pyk2-PRR or control peptides at 0.1, 1, and 5 μM concentration and allowed to attach for eight hours. Cells were then starved in DMEM/0.5% FBS for 16 h in the presence of peptides and stimulated with 2.5 nM EGF for 3 min or left un-stimulated (0 min EGF). Cells were fixed and stained with mouse phospho-specific cortactin antibody (pY421). To image invadopodia Z-plane, focus was on the ventral surface of the cell where the leading edge containing cortactin is focused. The pixels corresponding to invadopodia dots were then analyzed, not the whole cell. The intensity (mean grey value (mgv) minus background) of cortactin-TagRFP and pY421-cortactin at invadopodium precursors was quantified. The pY421-cortactin/cortactin-TagRFP ratio was calculated as a measure of tyrosine-phosphorylated cortactin at cortactin-rich puncta. Data were normalized to resting cells (0 min EGF) and presented as the relative fold change in cortactin tyrosine phosphorylation.

A further test concerns MDA-MB-231 cells. As to the kind of experiment: Barbed end formation assay. The class given is cell-based, human. The conditions noted are these: EGF stimulation; all concentrations. As for the experimental part:
The barbed end assay was performed using biotin-conjugated actin as described in Genna et al., 2018 (supra). In brief, 24 h before each experiment, cells were plated on fibronectin/gelatin unlabeled matrix in the presence of Pyk2-PRR or control peptides at 0.1, 1, or 5 μM concentration and allowed to attach for 8 h. Cells were starved for 16 h in the presence of the peptides and then stimulated with 2.5 nM EGF and permeabilized with a permeabilization buffer (20 mM Hepes, pH 7.5, 138 mM KCl, 4 mM MgCl2, 3 mM EGTA, 0.2 mg/ml saponin, 1 mM ATP, and 1% BSA) containing 0.4 μM biotin-conjugated muscle actin (AB07) (Cytoskeleton Inc., Denver, CO, USA) for 1 min at 37° C. Cells were fixed in 3.7% paraformaldehyde for 5 min, blocked in PBS containing 1% FBS, 1% BSA, and 3 μM un-labeled phalloidin (Molecular Probes, P3457), then labeled with FITC anti-biotin (200-092-211) (Jackson ImmunoResearch Laboratories, West Grove, PA, USA) to visualize barbed ends, and with rhodamine-phalloidin (R415) (Molecular Probes, Eugene, OR, USA) and Arp2 to identify regions of cells rich in invadopodia. The barbed end intensity at invadopodia-rich regions was quantified by measuring mgv at invadopodia-rich areas minus mgv of the background. Data were normalized to the control condition for each experiment.

The structures appear in SMILES notation.

T1 sequence (Q60598 490-546): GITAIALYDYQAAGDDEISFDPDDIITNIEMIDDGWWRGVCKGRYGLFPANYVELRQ

Take `C[C@H](NC(=O)[C@@H](N)[C@@H](C)O)C(=O)N[C@@H](Cc1ccccc1)C(=O)N[C@@H](CCC(N)=O)C(=O)N[C@@H](CCC(=O)O)C(=O)N1CCC[C@H]1C(=O)N1CCC[C@H]1C(=O)N1CCC[C@H]1C(=O)N[C@@H](CCCCN)C(=O)N1CCC[C@H]1C(=O)N[C@@H](CO)C(=O)N[C@@H](CCCNC(=N)N)C(=O)N1CCC[C@H]1C(=O)N[C@@H](CCCCN)C(=O)N[C@@H](Cc1ccc(O)cc1)C(=O)N[C@@H](CCCNC(=N)N)C(=O)N1CCC[C@H]1C(=O)N1CCC[C@H]1C(=O)N1CCC[C@H]1C(=O)O` [Pyk2-PRR2, TAFQEPPPKPSRPKYRPPP]: on cortactin SH3 domain, the “higher affinity than Pyk2-PRR3” value is 16 fold. Also, the “cortactin Y421 phosphorylation” value in the test on cortactin tyrosine Y421 was “completely abolished”. Also, the “generation of free actin barbed ends at invadopodia” value in the test with MDA-MB-231 cells is given as “completely disrupted”.
